Measured values: patent US6433012B1, “Method for inhibiting inflammatory disease” (Large Scale Biology Corp., priority 1998, dated 2002)

Legend:
[1] = test system: OVCAR-3 human ovarian carcinoma xenografts; assay: Tumor growth delay, OVCAR-3 xenografts; assay type: in vivo, nude mice; conditions: oral treatment, at 5 weeks
Protocol: Intraperitoneally administered cyclophosphamide (CTX; Cytoxan; 150 mg/kg), which is used in some regimens for adjuvant breast cancer therapy was used as a positive control.

[2] = test system: corneal neovascularization induced by bFGF; assay: Rat corneal neovascularization assay; assay type: in vivo, Fischer 344 rats; set-up: total vascular area: unit not given here; conditions: oral gavage 500 mg/kg twice a day for 6 days
Protocol: Hydron polymer (Interferon Sciences, New Brunswick, N.J.) was dissolved in ethanol to a concentration of 12% (W/V). A 1:1 mixture of 12% Hydron and bFGF/Sucralfate/PBS suspension was made as a casting solution and 3 μl of this solution was pipetted onto a sterile Teflon sheet and allowed to dry overnight at 4° C. Each dried pellet contained 50 ng of bFGF and 20 μg of Sucralfate. Female Fischer 344 rats (16 animals, 8-10 weeks old at an approximate weight of 150 g; Charles River, Raleigh, N.C.) were used for this study. Animals were kept in temperature-controlled rooms (24° C.) on a 12-h light-dark cycle with access to rat chow and tap water ad libitum. Following anesthesia with sodium pentobarbital given i.p. at 50 mg/kg body weight, a rat was placed under a dissecting microscope and a drop of Ophthaine was applied on the cornea of one eye. The eye was proptosed by stretching sutures on the upper and lower eyelids. A small superficial incision was made through the cornea center and a micropocket was created by separating the lamella of the stroma toward the limbus with a modified iris spatula. The distance between the bottom of the micropocket and the limbus was about 1 mm. A prepared sterile Hydron pellet was rehydrated with a drop of sterile saline and placed into the corneal micropocket. The cornea was covered with gentamycin ophthalmic ointment (Alleran, Inc., Irvine, Calif.) after surgery. Rats were randomly divided into treated and control groups. […] The drug was administrated by oral gavage at a dose of 500 mg/kg body weight, twice a day for 6 days beginning from the first postoperative day. The controls received vehicle only, and body weights of all animals were monitored and recorded daily. On the seventh postoperative day, animals were anesthetized with nembutal (50 mg/kg) and the thoracic aorta was rapidly cannulated in a retrograde fashion with PE 100 tubing. An incision was made in the right auricle for drainage of blood and saline during flushing and 40-60 mL of saline was injected via the tubing to wash out the blood from the vessels in the upper part of the body until the eyes, ears and nose became pale. Then 10 mL of Higgins waterproof Indian ink (Sanford, Bellwood, Ill.) was injected via the tubing to visualize corneal vessels. The eyes were enucleated, fixed in 10% neutralized formaldehyde buffer, and the corneas were dissected and mounted on slides. Slide-mounted corneal images were taken by using a Carl Zeiss MPS intravital microscope (Carl Zeiss, Hanover, Md.) with a camera connected to a PC equipped with Scion Image software and a frame grabber (Scion Corporation, Frederick, Md.).
For the quantitative analysis of corneal neovascularization, various parameters of the corneal images were measured by an investigator who was unaware of the treatment protocol. The shortest distance between the implanted pellet and the limbus was marked as the midline and was measured. The arc along the limbus for the entire vascularized area was drawn and the length of the arc was measured. The circumference of this area was calculated by using the following equation: Circumference (in clock hours)=Arc length×360/πD/30, where D is the corneal diameter. The marked arc was evenly divided into six sections, distances between vessel tips and the limbus at the five intersection points of the arc were measured, and the average vessel length was calculated. The perpendicular distance between the tip of the longest vessel and the limbus (longest vessel length) was also measured. To measure the percent vascular volume (i.e., the vascular volume density), three circles with a diameter of 100 pixels were located between the pellet and the limbus on the midline in the second and the fifth sections, respectively. The total area of each circle (Area-T) and the area for vessels in each circle (total black pixels) were measured (Area-V). […]

For `COC(=O)c1cc(I)c(Oc2ccc(OC)cc2)c(I)c1` [BTO-956, methyl-3,5-diiodo-4-(4′-methoxyphenoxy)benzoate], the “relative mean tumor volume, fold less than vehicle-treated controls” value [1] was “approximately 5 fold”, the “body weight loss or behavioral changes” value [2] was “No significant body weight loss or behavioral changes” and the average vessel length ([2]; mean ± SEM) was 0.42±0.07 mm. For the same compound, the “circumference of corneal neovascularization” value ([2]; mean ± SEM) was 1.74±0.11 clock hours, the maximum vessel length ([2]; mean ± SEM) was 0.76±0.09 mm and the total vascular area ([2]; mean ± SEM) was 1.52±0.27. For the same compound, the vascular volume density ([2]; mean ± SEM) was 0.037±0.01, the “reduction of average vessel length relative to controls” value ([2]; p<0.001) was 50% and the “decrease of total vascular area compared with controls” value ([2]; p<0.01) was 65%. The “decrease of vascular volume density compared with controls” value ([2]; p<0.01) was 84.5%, the “reduction of circumference of neovascularization compared with controls” value ([2]; p<0.01) was 45% and the “reduction of maximum vessel length relative to controls” value ([2]; p<0.01) was 38%.
